Assay results as given in ChEMBL document CHEMBL5678818, “Discovery of potent SOS1 inhibitors that block RAS activation via disruption of the RAS-SOS1 interaction” (Proc Natl Acad Sci U S A, 2019).
Activity calls are given as the source filed them. The rule behind the calls is not given here.

Experiments:
[1] = target: Tyrosine-protein kinase CSK (Homo sapiens) (UniProt P41240); test: Inhibition of CSK (unknown origin) assessed as residual activity at 100 nM by KINOMEscan analysis relative to control
Chain of Tyrosine-protein kinase CSK (Homo sapiens) (P41240 2-450 limits assumed): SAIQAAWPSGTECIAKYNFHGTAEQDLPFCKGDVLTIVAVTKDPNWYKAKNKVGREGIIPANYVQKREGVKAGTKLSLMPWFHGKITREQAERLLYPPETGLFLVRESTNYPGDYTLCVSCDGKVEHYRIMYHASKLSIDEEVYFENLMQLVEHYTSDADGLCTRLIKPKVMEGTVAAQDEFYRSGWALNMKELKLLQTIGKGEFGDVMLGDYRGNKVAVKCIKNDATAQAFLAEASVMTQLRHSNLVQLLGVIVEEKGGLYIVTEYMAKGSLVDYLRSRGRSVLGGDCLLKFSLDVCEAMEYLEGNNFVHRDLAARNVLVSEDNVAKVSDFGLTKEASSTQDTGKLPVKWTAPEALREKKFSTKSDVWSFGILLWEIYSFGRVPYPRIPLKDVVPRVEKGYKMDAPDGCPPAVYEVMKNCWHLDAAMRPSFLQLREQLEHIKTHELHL

[2] = target: 5'-AMP-activated protein kinase catalytic subunit alpha-1 (Homo sapiens) (UniProt Q13131); test: Inhibition of AMPK-alpha1 (unknown origin) assessed as residual activity at 100 nM by KINOMEscan analysis relative to control
Chain of 5'-AMP-activated protein kinase catalytic subunit alpha-1 (Homo sapiens) (Q13131 whole entry, looked up): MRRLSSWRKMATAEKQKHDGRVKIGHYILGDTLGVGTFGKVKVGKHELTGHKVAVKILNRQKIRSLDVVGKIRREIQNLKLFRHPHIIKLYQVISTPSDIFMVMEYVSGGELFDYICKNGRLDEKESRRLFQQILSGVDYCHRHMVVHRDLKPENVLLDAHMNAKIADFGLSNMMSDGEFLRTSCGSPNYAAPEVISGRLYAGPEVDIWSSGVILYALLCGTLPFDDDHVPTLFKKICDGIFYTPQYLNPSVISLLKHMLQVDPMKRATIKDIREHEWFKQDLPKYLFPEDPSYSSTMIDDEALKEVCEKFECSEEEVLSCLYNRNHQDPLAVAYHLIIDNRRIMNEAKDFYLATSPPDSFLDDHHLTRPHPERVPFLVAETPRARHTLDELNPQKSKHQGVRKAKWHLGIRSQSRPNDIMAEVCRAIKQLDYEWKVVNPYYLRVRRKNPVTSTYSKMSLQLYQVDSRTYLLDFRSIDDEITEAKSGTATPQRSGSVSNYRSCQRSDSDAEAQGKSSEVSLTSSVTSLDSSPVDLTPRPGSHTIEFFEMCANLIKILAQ

[3] = target: T1, Cyclin-G-associated kinase (Homo sapiens) (UniProt O14976); test: Inhibition of GAK (unknown origin) assessed as residual activity at 100 nM by KINOMEscan analysis relative to control
T1 sequence (whole entry): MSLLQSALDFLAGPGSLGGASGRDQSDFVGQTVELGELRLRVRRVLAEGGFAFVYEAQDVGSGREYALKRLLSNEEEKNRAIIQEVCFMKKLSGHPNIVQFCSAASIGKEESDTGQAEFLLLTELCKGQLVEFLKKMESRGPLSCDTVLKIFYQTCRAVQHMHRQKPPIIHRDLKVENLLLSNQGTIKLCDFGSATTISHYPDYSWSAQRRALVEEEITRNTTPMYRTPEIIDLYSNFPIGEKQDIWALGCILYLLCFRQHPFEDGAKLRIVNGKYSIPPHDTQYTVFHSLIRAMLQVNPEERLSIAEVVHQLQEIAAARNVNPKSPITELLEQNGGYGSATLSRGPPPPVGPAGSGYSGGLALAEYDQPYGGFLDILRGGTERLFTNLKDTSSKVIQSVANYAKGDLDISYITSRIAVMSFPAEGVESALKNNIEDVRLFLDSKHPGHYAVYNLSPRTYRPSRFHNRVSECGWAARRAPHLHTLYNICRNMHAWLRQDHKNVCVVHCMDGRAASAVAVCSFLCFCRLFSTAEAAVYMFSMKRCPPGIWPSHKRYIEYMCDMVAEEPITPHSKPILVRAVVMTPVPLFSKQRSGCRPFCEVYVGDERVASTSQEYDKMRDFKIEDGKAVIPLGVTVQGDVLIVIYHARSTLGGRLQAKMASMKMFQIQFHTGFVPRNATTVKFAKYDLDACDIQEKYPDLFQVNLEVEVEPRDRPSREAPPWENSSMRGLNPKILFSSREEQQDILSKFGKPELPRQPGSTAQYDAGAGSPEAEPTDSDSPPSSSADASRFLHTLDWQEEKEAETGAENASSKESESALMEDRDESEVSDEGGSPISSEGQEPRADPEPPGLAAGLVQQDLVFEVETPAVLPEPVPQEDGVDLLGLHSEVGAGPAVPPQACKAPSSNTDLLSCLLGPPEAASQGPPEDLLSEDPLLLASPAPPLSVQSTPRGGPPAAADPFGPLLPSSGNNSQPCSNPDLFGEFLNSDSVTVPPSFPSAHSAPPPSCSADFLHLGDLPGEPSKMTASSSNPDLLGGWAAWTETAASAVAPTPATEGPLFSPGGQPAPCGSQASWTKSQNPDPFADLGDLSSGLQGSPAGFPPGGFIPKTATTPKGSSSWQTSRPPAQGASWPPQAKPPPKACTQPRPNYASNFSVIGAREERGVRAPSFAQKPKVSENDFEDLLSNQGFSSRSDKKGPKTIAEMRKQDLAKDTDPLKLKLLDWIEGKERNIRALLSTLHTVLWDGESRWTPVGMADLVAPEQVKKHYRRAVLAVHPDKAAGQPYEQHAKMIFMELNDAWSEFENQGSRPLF

[4] = target: T2, Son of sevenless homolog 1 (Homo sapiens) (UniProt Q07889); test: Binding affinity to N-terminal His10-tagged wild-type recombinant human SOS1 catalytic domain (564 to 1049 residues) expressed in Escherichia coli assessed as binding at 1:1 stoichiometry at 100 uM incubated for 1 hr by native MS analysis
T2 sequence (whole entry): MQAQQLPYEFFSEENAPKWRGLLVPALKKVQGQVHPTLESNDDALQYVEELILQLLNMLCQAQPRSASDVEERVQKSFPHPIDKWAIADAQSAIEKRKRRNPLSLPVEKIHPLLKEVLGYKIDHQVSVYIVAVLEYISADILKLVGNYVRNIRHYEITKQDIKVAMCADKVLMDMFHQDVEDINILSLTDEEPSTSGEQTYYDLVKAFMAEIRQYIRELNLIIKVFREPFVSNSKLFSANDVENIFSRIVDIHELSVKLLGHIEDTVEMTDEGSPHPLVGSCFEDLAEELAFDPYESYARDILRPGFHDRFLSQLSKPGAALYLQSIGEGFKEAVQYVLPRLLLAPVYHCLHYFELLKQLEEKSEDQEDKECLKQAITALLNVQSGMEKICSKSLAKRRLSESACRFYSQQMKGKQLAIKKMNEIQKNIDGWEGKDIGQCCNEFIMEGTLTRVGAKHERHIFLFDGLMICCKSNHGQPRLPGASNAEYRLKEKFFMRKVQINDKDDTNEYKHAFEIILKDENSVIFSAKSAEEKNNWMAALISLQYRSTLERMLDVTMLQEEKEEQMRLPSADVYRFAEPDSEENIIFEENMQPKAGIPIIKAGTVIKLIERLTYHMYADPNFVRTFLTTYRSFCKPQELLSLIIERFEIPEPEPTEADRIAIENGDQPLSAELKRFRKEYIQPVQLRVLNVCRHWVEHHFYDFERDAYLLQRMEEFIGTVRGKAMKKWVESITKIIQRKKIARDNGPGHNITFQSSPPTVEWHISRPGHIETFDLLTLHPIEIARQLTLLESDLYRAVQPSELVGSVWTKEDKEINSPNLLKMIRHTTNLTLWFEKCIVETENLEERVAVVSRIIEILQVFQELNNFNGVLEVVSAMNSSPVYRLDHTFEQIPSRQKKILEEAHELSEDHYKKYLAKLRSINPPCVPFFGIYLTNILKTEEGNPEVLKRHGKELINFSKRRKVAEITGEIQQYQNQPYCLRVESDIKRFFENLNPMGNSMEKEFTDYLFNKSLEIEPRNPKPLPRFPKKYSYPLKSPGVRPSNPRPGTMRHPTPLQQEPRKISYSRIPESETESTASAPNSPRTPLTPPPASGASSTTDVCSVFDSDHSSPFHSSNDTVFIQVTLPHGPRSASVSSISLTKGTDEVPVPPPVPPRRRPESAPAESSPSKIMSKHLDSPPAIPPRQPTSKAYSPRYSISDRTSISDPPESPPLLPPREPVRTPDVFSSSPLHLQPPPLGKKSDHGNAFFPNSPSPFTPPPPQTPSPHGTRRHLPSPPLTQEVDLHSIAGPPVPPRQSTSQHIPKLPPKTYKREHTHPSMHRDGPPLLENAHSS

[5] = target: Casein kinase I isoform gamma-1 (Homo sapiens) (UniProt Q9HCP0); test: Inhibition of CSNK1G1 (unknown origin) assessed as residual activity at 100 nM by KINOMEscan analysis relative to control
Chain of Casein kinase I isoform gamma-1 (Homo sapiens) (Q9HCP0 whole entry, looked up, canonical isoform): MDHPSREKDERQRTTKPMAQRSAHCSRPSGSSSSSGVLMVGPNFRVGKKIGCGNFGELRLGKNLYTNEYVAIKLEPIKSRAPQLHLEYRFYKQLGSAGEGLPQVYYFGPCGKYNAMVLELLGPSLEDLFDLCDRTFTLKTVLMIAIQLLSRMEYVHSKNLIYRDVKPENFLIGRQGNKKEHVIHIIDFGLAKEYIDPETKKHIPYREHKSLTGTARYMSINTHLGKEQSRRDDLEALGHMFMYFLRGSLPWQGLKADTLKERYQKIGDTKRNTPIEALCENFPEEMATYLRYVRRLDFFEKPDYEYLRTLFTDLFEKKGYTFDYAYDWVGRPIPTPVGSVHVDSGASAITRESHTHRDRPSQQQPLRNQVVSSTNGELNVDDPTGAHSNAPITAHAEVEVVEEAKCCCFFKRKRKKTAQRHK

[6] = target: ALK tyrosine kinase receptor (Homo sapiens) (UniProt Q9UM73); test: Inhibition of ALK (unknown origin) assessed as residual activity at 100 nM by KINOMEscan analysis relative to control
Chain of ALK tyrosine kinase receptor (Homo sapiens) (Q9UM73 19-1620 limits assumed): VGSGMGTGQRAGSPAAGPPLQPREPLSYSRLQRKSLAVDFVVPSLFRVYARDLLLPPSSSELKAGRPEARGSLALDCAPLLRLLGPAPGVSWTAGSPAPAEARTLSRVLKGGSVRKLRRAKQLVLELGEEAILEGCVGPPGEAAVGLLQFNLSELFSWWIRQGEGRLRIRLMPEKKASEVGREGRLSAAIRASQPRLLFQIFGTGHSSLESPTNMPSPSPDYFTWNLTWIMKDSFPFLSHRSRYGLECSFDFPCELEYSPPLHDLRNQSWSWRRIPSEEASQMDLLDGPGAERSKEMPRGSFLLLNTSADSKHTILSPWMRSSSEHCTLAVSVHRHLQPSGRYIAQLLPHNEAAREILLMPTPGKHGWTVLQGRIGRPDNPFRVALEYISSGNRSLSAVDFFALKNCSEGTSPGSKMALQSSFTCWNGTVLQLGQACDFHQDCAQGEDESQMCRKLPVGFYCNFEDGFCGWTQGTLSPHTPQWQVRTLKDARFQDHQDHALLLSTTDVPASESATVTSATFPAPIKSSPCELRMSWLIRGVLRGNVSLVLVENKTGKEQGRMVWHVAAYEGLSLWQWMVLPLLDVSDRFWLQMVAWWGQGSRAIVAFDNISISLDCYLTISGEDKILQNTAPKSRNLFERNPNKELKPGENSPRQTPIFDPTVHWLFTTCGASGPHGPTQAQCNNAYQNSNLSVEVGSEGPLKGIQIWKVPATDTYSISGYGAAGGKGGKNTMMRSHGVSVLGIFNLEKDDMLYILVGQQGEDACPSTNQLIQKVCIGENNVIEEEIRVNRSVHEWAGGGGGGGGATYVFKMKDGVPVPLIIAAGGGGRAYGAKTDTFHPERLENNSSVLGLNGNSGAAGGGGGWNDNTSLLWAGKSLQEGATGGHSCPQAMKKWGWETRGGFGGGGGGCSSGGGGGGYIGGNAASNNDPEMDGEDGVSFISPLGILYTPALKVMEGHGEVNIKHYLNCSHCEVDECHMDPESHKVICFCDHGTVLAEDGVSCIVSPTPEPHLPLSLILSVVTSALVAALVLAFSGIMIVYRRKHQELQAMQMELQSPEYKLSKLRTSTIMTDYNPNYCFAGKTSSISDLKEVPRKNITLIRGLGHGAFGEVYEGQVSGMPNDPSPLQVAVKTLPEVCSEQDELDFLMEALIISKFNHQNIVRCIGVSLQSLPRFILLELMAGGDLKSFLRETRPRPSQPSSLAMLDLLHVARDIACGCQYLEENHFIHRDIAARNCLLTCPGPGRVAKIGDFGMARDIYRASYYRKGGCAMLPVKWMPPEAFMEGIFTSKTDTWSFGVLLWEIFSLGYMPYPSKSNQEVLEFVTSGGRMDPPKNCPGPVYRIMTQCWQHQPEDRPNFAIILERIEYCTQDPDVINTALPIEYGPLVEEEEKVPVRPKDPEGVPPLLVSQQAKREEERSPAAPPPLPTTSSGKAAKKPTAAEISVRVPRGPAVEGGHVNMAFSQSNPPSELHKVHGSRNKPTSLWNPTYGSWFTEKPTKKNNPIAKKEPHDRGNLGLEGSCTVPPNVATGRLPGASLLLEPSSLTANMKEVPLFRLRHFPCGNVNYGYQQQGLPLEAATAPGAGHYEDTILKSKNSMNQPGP

COc1cc2ncnc(N[C@H](C)c3cccc4ccccc34)c2cc1OC
Activity [1]: 90%
Activity [2]: 92%
Activity [3]: 100%
Activity [4]: Active
Activity [5]: 99%
Activity [6]: 87%
